Measured values published in patent publication US7678808B2, “5 HT receptor mediated neurogenesis” (BrainCells, Inc., priority 2006, dated 2010).
“Also recorded” adds a separate entry of the source.

How the values were obtained:
[1] = tested on: human neural stem cells (hNSCs); assay: Neuronal differentiation of human neural stem cells (TUJ-1 staining); assay type: cell-based; settings: agent alone; hNSC; data as % of neuronal positive control, basal media subtracted
Description: Mitogen-free test media with a positive control was used for neuronal differentiation, and basal media without growth factors served as a negative control.
Mitogen-free test media with a positive control for neuronal differentiation was used, and basal media without growth factors served as a negative control.
(§1) Human neural stem cells (hNSCs) were isolated and grown in monolayer culture, plated, treated with varying concentrations of buspirone in the presence or absence of the melatonin agonist melatonin, and stained with TUJ-1 antibody for the detection of neuronal differentiation or GFAP antibody for the detection of astrocyte differentiation, as described above. Mitogen-free test media with a positive control for neuronal differentiation was used along with basal media without growth factors as a negative control.
(§2) Human neural stem cells (hNSCs) were isolated and grown in monolayer culture, plated, treated with varying concentrations of a 5-HT3 antagonist and stained with TUJ-1 antibody, as described above. Mitogen-free test media with a positive control for neuronal differentiation was used along with basal media without growth factors as a negative control.
as §2, with “5-HT4 agonist” for “5-HT3 antagonist”
The presence of synergy was determined by use of a combination index (CI). […] The CI is a quantitative measure of the nature of drug interactions, comparing the EC50's of two compounds, when each is assayed alone, to the EC50 of each compound when assayed in combination. The combination index (CI) is equal to the following formula: […]
where C1 and C2 are the concentrations of a first and a second compound, respectively, resulting in 50% activity in neuronal differentiation when assayed in combination; and IC1 and IC2 are the concentrations of each compound resulting in 50% activity when assayed independently.

[2] = tested on: human neural stem cells (hNSCs); assay: Astrocyte differentiation of hNSCs (GFAP staining); assay type: cell-based
Procedure: Experiments were carried out as described in Example 1, except the positive control for astrocyte differentiation contained mitogen-free test media with a positive control, and cells were stained with GFAP antibody.
Experiments were carried out as described in Example 2, except the positive control for astrocyte differentiation contained mitogen-free test media with a different positive control.
as §1

[3] = tested on: Male F344 rats; assay: Novel Object Recognition (NOR) cognition assay; assay type: in vivo, rat; settings: buspirone 0.5 and 5.0 mg/kg i.p., 1x per day for 28 days
Description: The apparatus consisted of an open field (45×45×50 cm high) made of polycarbonate. Triplicate copies were used of the objects to be discriminated. Care was taken to ensure that the pair of objects tested were made from the same material so that they could not be distinguished readily by olfactory cues although they had very different appearances.
Each test session consisted of two phases. In the initial familiarization phase, two identical objects (A1 and A2) were placed in the far corners of the box arena. A rat was then placed in the middle of the arena and allowed 15 minutes to explore both objects. Exploration of an object was defined as directing the nose to the object at a distance of less than 2 cm and/or touching it with the nose. After a delay of 48-hours the rat was re-introduced to the arena (“test phase”). The box now contained a third identical copy of the familiar object (A3) and a new object (B). These were placed in the same locations as the sample stimuli, whereby the position (left or right) of the novel object in the test phase was balanced between rats. For half the rats, object A was the sample and object B was the novel alternative. The test phase was 15 minutes in duration, with the first 30 seconds of object interaction used to determine preference scores. Any animal with less than 15 seconds of object exploration were excluded from analysis.

[4] = tested on: Male F344 rats; assay: Novelty suppressed feeding (NSF) depression assay; assay type: in vivo, rat; settings: 1x per day for 21 days
Procedure: Twenty-four hours prior to behavioral testing, all food is removed from the home cage. At the time of testing a single pellet is placed in the center of a novel arena. Animals are placed in the corner of the arena and latency to eat the pellet is recorded. […] Animals receive compound daily for 21 days and testing is performed on day 21. A decreased latency to eat the food pellet is indicative of both neurogenesis and antidepressant activity.
Twenty-four hours prior to behavioral testing, all food is removed from the home cage. At the time of testing a single pellet is placed in the center of a novel arena. Animals are placed in the corner of the arena and the latency (in time) to eat the pellet is recorded. […] Animals receive compound daily for 21 days and testing is performed on day 21. A decreased latency to eat the food pellet is indicative of both neurogenesis and antidepressant activity.

[5] = tested on: granule cell layer of the dentate gyrus; assay: In vivo neurogenesis (BrdU positive cell counts); design: species or system rat; settings: 0.5 mg/kg buspirone, 3.0 mg/kg melatonin or both, i.p., 1x per day for 28 days
Procedure: BrdU was administered once daily between days 9 and 14 (100 mg/kg/day, i.p., n=12 per dose group). […] Data are presented as percent change in BrdU positive cells per cubic mm dentate gyrus.

[6] = Rat body weight during chronic dosing; settings: buspirone 0.5 and 5.0 mg/kg i.p., 1x per day for 28 days

EC50 [1]: 9.4 µM
EC50 ([2]; Homo sapiens, Neural stem cell, agent alone, hNSC): 5.7 µM
SMILES: O=C1CC2(CCCC2)CC(=O)N1CCCCN1CCN(c2ncccn2)CC1 [buspirone]
maximum astrocyte differentiation ([2]; percent of positive control, agent alone or in combination): 60%
preference for the novel object (visits, time spent) [3]: did not increase preference for the novel object; also recorded: did not demonstrate a significant effect on cognition
latency to eat the food pellet (percent baseline) ([4]; 0.5 mg/kg buspirone, 3.0 mg/kg melatonin or both, i.p.): did not significantly reduce the latency to eat the food pellet
latency to eat the food pellet ([4]; buspirone 0.5 and 5.0 mg/kg i.p.): did not significantly reduce the latency to eat the food pellet; also recorded: did not demonstrate a significant effect on novelty suppressed feeding
BrdU positive cells per cubic mm dentate gyrus (percent change) [5]: did not significantly change the number of BrdU positive cells
mean body weight [6]: dose-dependent decrease in mean body weight
